Measured values: ChEMBL document CHEMBL5356973 (J Med Chem, 2023)
Active and inactive are the calls of the source. The calls are words filed in the database; no cut-off is given here.

Columns and labels:
Mu-type opioid receptor [1] = target: T1, Mu-type opioid receptor (Homo sapiens, UniProt P35372); assay: Agonist activity at MOR (unknown origin) transfected in CHO cells co-expressing Galphaq15 assessed as increase in calcium mobilization by Fluo-4AM dye based assay; type: functional, cell-based
T1 sequence (P35372 whole entry): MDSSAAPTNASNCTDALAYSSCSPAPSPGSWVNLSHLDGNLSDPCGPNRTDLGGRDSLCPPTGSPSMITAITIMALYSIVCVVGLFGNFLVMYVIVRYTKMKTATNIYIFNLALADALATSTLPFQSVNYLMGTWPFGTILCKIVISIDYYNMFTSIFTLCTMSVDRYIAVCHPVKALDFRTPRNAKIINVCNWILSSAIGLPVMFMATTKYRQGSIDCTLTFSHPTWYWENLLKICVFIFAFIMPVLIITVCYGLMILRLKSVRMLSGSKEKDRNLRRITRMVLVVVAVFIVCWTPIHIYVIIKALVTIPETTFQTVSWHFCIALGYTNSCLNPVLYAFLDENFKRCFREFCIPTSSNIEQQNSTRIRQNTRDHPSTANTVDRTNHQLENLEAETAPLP

Mu-type opioid receptor [2] = target: T1, Mu-type opioid receptor; assay: Agonist activity at MOR (unknown origin) transfected in CHO cells co-expressing Galphaq15 assessed as increase in calcium mobilization by measuring maximal efficacy by Fluo-4AM dye based assay relative to control; type: functional, cell-based; details: filed as agonist
[3] = target: T2, Kappa-type opioid receptor (Homo sapiens, UniProt P41145); assay: Agonist activity at KOR (unknown origin) transfected in CHO cells co-expressing Galphaq15 assessed as increase in calcium mobilization by Fluo-4AM dye based assay; type: functional, cell-based
T2 sequence (P41145 whole entry): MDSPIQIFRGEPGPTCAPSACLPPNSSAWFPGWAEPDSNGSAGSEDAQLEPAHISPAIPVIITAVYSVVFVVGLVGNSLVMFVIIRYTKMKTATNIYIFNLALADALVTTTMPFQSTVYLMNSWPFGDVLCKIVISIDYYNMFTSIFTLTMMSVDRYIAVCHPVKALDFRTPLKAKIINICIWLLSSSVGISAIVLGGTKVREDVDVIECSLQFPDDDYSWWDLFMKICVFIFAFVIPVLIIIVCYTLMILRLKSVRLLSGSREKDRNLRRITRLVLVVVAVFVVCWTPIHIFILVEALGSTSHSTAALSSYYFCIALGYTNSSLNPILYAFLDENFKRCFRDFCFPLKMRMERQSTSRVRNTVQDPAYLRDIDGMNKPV

[4] = target: T2, Kappa-type opioid receptor; assay: Agonist activity at KOR (unknown origin) transfected in CHO cells co-expressing Galphaq15 assessed as increase in calcium mobilization by measuring maximal efficacy by Fluo-4AM dye based assay relative to control; type: functional, cell-based; details: filed as agonist
[5] = target: T3, Delta-type opioid receptor (Homo sapiens, UniProt P41143); assay: Agonist activity at DOR (unknown origin) transfected in CHO cells co-expressing Galphaq15 assessed as increase in calcium mobilization by Fluo-4AM dye based assay; type: functional, cell-based
T3 sequence (P41143 whole entry): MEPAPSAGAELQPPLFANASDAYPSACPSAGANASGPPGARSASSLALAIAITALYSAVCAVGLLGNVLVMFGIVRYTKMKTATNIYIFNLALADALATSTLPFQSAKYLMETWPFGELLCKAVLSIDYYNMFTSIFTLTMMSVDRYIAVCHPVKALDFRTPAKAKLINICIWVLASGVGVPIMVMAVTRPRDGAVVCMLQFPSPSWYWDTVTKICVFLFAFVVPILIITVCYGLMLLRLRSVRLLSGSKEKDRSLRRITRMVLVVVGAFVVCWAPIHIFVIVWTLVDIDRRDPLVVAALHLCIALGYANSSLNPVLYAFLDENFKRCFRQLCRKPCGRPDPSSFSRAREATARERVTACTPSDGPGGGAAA

[6] = target: T3, Delta-type opioid receptor; assay: Agonist activity at DOR (unknown origin) transfected in CHO cells co-expressing Galphaq15 assessed as increase in calcium mobilization by measuring maximal efficacy by Fluo-4AM dye based assay relative to control; type: functional, cell-based; details: filed as agonist
[7] = Agonist activity at NPFF1R (unknown origin) transfected in CHO cells co-expressing Galphaq15 assessed as increase in calcium mobilization by measuring maximal efficacy by Fluo-4AM dye based assay relative to control; type: functional, cell-based; details: Homo sapiens, filed as agonist
[8] = target: T4, Neuropeptide FF receptor 2 (Homo sapiens, UniProt Q9Y5X5); assay: Agonist activity at NPFF2R (unknown origin) transfected in HEK293 cells co-expressing Galphaq15 assessed as increase in calcium mobilization by Fluo-4AM dye based assay; type: functional, cell-based
T4 sequence (Q9Y5X5 whole entry): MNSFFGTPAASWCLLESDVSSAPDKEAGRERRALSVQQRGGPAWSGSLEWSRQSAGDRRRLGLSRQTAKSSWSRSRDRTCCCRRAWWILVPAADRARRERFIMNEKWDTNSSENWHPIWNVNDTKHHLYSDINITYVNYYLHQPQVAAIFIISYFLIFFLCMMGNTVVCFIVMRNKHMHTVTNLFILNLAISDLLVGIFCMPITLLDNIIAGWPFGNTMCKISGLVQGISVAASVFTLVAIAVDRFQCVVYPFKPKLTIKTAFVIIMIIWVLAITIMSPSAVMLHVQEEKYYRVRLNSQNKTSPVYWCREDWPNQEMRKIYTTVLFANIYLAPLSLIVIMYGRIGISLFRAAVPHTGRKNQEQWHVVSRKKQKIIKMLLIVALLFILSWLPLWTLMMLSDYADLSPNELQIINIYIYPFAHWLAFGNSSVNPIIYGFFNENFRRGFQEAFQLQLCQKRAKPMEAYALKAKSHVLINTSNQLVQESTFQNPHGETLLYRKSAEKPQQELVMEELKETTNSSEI

[9] = target: T4, Neuropeptide FF receptor 2; assay: Agonist activity at NPFF2R (unknown origin) transfected in HEK293 cells co-expressing Galphaq15 assessed as increase in calcium mobilization by measuring maximal efficacy by Fluo-4AM dye based assay relative to control; type: functional, cell-based; details: filed as agonist
[10] = Metabolic stability in mouse plasma assessed as degradation half life at 10 mM measured upto 480 mins by RP-HPLC analysis; type: ADME, cell-free
[11] = Metabolic stability in mouse brain homogenate assessed as degradation half life at 10 mM measured upto 480 mins by RP-HPLC analysis; type: ADME, tissue-based
Mus musculus [12] = assay: Antinociceptive activity in Kunming mouse assessed as changes in tail flick latency by measuring maximal possible effect at 0.88 nmol/kg, sc measured after 20 mins by tail-flick test; type: functional
Mus musculus [13] = assay: Antinociceptive activity in Kunming mouse assessed as changes in tail flick latency by measuring maximal possible effect at 0.88 nmol/kg, sc measured after 30 mins by tail-flick test; type: functional; details: 0.5 h
Mus musculus [14] = assay: Antinociceptive activity in Kunming mouse assessed as changes in tail flick latency by measuring maximal possible effect at 0.88 nmol/kg, sc measured after 60 mins by tail-flick test; type: functional; details: 1 h
Mus musculus [15] = assay: Antinociceptive activity in Kunming mouse assessed as changes in tail flick latency by measuring maximal possible effect at 0.88 nmol/kg, sc measured after 120 mins by tail-flick test; type: functional; details: 2 h
Mus musculus [16] = assay: Antinociceptive activity in Kunming mouse assessed as changes in tail flick latency by measuring maximal possible effect at 0.88 nmol/kg, sc measured after 240 mins by tail-flick test; type: functional; details: 4 h
Mus musculus [17] = assay: Antinociceptive activity in Kunming mouse assessed as changes in tail flick latency by measuring time duration of antinociceptive effect at 0.88 nmol/kg, sc by tail-flick test; type: functional
Mus musculus [18] = assay: Antinociceptive activity in sc dosed Kunming mouse assessed as changes in tail flick latency measured after 10 to 360 mins by tail-flick test; type: functional; details: time 10-360 min
Mus musculus [19] = assay: Antinociceptive activity in Kunming mouse assessed as changes in tail flick latency at 0.88 nmol/kg, sc pretreated with naloxone methiodide at 5 nmol, icv for 10 mins followed by compound addition and measured for 360 mins by tail-flick test; type: functional, organism-based
Mus musculus [20] = assay: Antinociceptive activity in Kunming mouse assessed as changes in tail flick latency at 0.88 nmol/kg, sc pretreated with beta-funaltrexamine at 10 nmol, icv for 4 hrs followed by compound addition and measured for 360 mins by tail-flick test; type: functional, organism-based
Mus musculus [21] = assay: Antinociceptive activity in Kunming mouse assessed as changes in tail flick latency at 0.88 nmol/kg, sc pretreated with nor-binaltorphimine at 10 nmol, icv for 30 mins followed by compound addition and measured for 360 mins by tail-flick test; type: functional, organism-based
Mus musculus [22] = assay: Antinociceptive activity in Kunming mouse assessed as changes in tail flick latency at 0.88 nmol/kg, sc pretreated with naltrindole at 10 nmol, icv for 10 mins followed by compound addition and measured for 360 mins by tail-flick test; type: functional, organism-based
Mus musculus [23] = assay: Antinociceptive activity in Kunming mouse assessed as changes in tail flick latency at 0.009 nmol/kg, sc pretreated with 1-adamantanecarbonyl-RF-NH2 at 10 nmol, icv for 5 mins followed by compound addition and measured for 360 mins by tail-flick test; type: functional, organism-based
Mus musculus [24] = assay: Antinociceptive activity in Kunming mouse assessed as changes in tail flick latency by measuring time duration of action at 0.88 to 8.82 nmol/kg, po measured for 360 mins by tail-flick test; type: functional; details: dose 0.88-8.82 nmol/kg, 6 h
Mus musculus [25] = assay: Antinociceptive activity in po dosed Kunming mouse assessed as changes in tail flick latency measured for 360 mins by tail-flick test; type: functional; details: for ED50: 6 h
Mus musculus [26] = assay: Antinociceptive activity in Kunming mouse assessed as changes in tail flick latency by measuring time duration of action at 1 to 10 pmol, icv measured for 360 mins by tail-flick test; type: functional; details: dose 1-10 pmol, 6 h
Mus musculus [27] = assay: Antinociceptive activity in icv dosed Kunming mouse assessed as changes in tail flick latency measured for 360 mins by tail-flick test; type: functional; details: for ED50: 6 h
[28] = Induction of antinociceptive tolerance in Kunming mouse assessed as decrease in tail flick latency at 0.88 nmol/kg, sc administered once daily for 8 days and measured once daily by tail-flick test; type: toxicity, organism-based; details: in vivo, 192 h, time 8 day
[29] = Toxicity in Kunming mouse assessed as effect on motor coordination at 88 nmol/kg, sc measured after 15 to 45 mins by rotarod test; type: organism-based; details: in vivo, time 15-45 min
[30] = Toxicity in sc dosed 16 hrs fasted Kunming mouse assessed as constipation by measuring inhibition of gastrointestinal transit administered for 15 mins followed by charcoal meal and measured after 30 mins; type: organism-based; details: in vivo, 0.75 h, time 45 min
[31] = Toxicity in Kunming mouse assessed as effect on locomotor activity at 88 nmol/kg, sc measured after 20 to 180 mins by open field test; type: organism-based; details: in vivo, time 20-180 min
[32] = Toxicity in Kunming mouse assessed as addiction behavior at 88 nmol/kg, sc administered for 3 days starting from day 2 and measured on day 5 by conditioned place preference test; type: organism-based; details: in vivo, 96 h, time 4 day
[33] = Toxicity in sc dosed Kunming mouse assessed as effect on naloxone-induced jumping response at 88 nmol/kg, sc administered every 8 hrs for 3 days followed by naloxone administration at 2 hrs post last dose and measured immediately by Nal-precipitated withdraw test; type: organism-based; details: in vivo, 74 h
[34] = Toxicity in Kunming mouse assessed as reduction in respiration frequency at 88 nmol/kg, sc measured upto 100 mins by whole-body plethysmography; type: organism-based; details: in vivo, 1.667 h
[35] = Ratio of AUC in brain to plasma in Kunming mouse at 1 mg/kg, iv measured upto 240 mins by LC-MS/MS analysis; type: ADME, organism-based; details: read-out: BPR
[36] = AUC in Kunming mouse plasma at 1 mg/kg, iv measured upto 240 mins by LC-MS/MS analysis; type: ADME, organism-based; set-up: time < 240 min, dose 1 mg/kg, route iv
[37] = AUC in Kunming mouse brain at 1 mg/kg, iv measured upto 240 mins by LC-MS/MS analysis; type: ADME, organism-based; set-up: time < 240 min, dose 1 mg/kg, route iv; details: in vivo, 4 h
Mus musculus [38] = assay: Antinociceptive activity in Kunming mouse assessed as changes in tail flick latency by measuring maximal possible effect at 26.7 nmol/kg, sc measured after 20 mins by tail-flick test; type: functional
Mus musculus [39] = assay: Antinociceptive activity in Kunming mouse assessed as changes in tail flick latency by measuring maximal possible effect at 26.7 nmol/kg, sc measured after 30 mins by tail-flick test; type: functional; details: 0.5 h
Mus musculus [40] = assay: Antinociceptive activity in Kunming mouse assessed as changes in tail flick latency by measuring maximal possible effect at 26.7 nmol/kg, sc measured after 60 mins by tail-flick test; type: functional; details: 1 h
Mus musculus [41] = assay: Antinociceptive activity in Kunming mouse assessed as changes in tail flick latency by measuring maximal possible effect at 26.7 nmol/kg, sc measured after 120 mins by tail-flick test; type: functional; details: 2 h
Mus musculus [42] = assay: Antinociceptive activity in Kunming mouse assessed as changes in tail flick latency by measuring maximal possible effect at 26.7 nmol/kg, sc measured after 240 mins by tail-flick test; type: functional; details: 4 h
Mus musculus [43] = assay: Antinociceptive activity in Kunming mouse assessed as changes in tail flick latency by measuring time duration of antinociceptive effect at 26.7 nmol/kg, sc by tail-flick test; type: functional
Mus musculus [44] = assay: Antinociceptive activity in Kunming mouse assessed as changes in tail flick latency at 26.7 nmol/kg, sc pretreated with naloxone methiodide at 5 nmol, icv for 10 mins followed by compound addition and measured for 360 mins by tail-flick test; type: functional, organism-based

Compound | EC50 (Mu-type opioid receptor [1]) | Emax (Mu-type opioid receptor [2]) | EC50 [3] | Emax [4] | EC50 [5] | Emax [6] | Emax [7] | EC50 [8] | Emax [9] | half-life at 10000 µM [10] | half-life at 10000 µM [11] | MPE (Mus musculus [12]) | MPE (Mus musculus [13]) | MPE (Mus musculus [14]) | MPE (Mus musculus [15]) | MPE (Mus musculus [16]) | Time (Mus musculus [17]) | Activity (Mus musculus [18]) | ED50 (Mus musculus [18]) | Activity (Mus musculus [19]) | other results
CN1C(=O)CNC(=O)[C@H](N[C@@H](Cc2ccc(O)cc2)C(=O)O)CCCC/C=C/C[C@@H](C(=O)N2CCC[C@H]2C(=O)N[C@@H](CCC(N)=O)C(=O)N[C@@H](CCCNC(=N)N)C(=O)N[C@@H](Cc2ccccc2)C(N)=O)NC(=O)[C@@H]1Cc1ccccc1 | 15.9 nM | 95% | 346 nM | 106% | 228 nM | 77.3% | 88.1% | 33.1 nM | 119% | 0.63 h | 2.98 h | 89.9% | 77.2% | 80.5% | 72.8% | 43.5% | 360 min | Dose-Dependent Effect | 2e-05 µmol/kg | inactive | Activity (Mus musculus [20]): inactive; Activity (Mus musculus [21]): inactive; Activity (Mus musculus [22]): Active; Activity (Mus musculus [23]): Active; Time (Mus musculus [24]): <=360 min; Activity (Mus musculus [25]): Dose-Dependent Effect; ED50 (Mus musculus [25]): 0.00195 µmol/kg; Time (Mus musculus [26]): <=360 min; Activity (Mus musculus [27]): Dose-Dependent Effect; ED50 (Mus musculus [27]): 1.82 pmol; Activity [28]: Non-Toxic; Activity [29]: Non-Toxic; ED50 [30]: 95.4 nmol/kg; Activity [31]: Non-Toxic; Activity [32]: Non-Toxic; Activity [33]: Non-Toxic; Activity [34]: Non-Toxic
CN1C(=O)CNC(=O)[C@H](N[C@@H](Cc2ccc(O)cc2)C(=O)O)CCCC/C=C\C[C@@H](C(=O)N2CCC[C@H]2C(=O)N[C@@H](CCC(N)=O)C(=O)N[C@@H](CCCNC(=N)N)C(=O)N[C@@H](Cc2ccccc2)C(N)=O)NC(=O)[C@@H]1Cc1ccccc1 | 2.8 nM | 98.1% | 169 nM | 99.2% | 56.2 nM | 81.9% | 93.7% | 144 nM | 89.2% | 0.447 h | 1.78 h | 89.8% | 89.5% | 85.4% | 58.9% | 46.2% | 360 min | Dose-Dependent Effect | 1e-05 µmol/kg | inactive | Activity (Mus musculus [20]): inactive; Activity (Mus musculus [21]): inactive; Activity (Mus musculus [22]): Active; Activity (Mus musculus [23]): Active; Kp at 4 h [35]: 1.35; AUC at 4 h [36]: 2270 ng·h/mL; AUC [37]: 183.2 µg·min/g; Time (Mus musculus [24]): <=360 min; Activity (Mus musculus [25]): Dose-Dependent Effect; ED50 (Mus musculus [25]): 0.00135 µmol/kg; Time (Mus musculus [26]): <=360 min; Activity (Mus musculus [27]): Dose-Dependent Effect; ED50 (Mus musculus [27]): 1.38 pmol; Activity [28]: Non-Toxic; Activity [29]: Non-Toxic; ED50 [30]: 84 nmol/kg; Activity [31]: Non-Toxic; Activity [32]: Non-Toxic; Activity [33]: Non-Toxic; Activity [34]: Non-Toxic
CN1C(=O)CNC(=O)[C@H](N[C@@H](Cc2ccc(O)cc2)C(=O)O)CCC/C=C/C[C@@H](C(=O)N2CCC[C@H]2C(=O)N[C@@H](CCC(N)=O)C(=O)N[C@@H](CCCNC(=N)N)C(=O)N[C@@H](Cc2ccccc2)C(N)=O)NC(=O)[C@@H]1Cc1ccccc1 | 38.9 nM | 120% | 124 nM | 98.3% | 27.7 nM | 93% | 129% | 52.3 nM | 77.9% | 1.01 h | 1.52 h | – | – | – | – | – | – | – | – | – | MPE (Mus musculus [38]): 94.2%; MPE (Mus musculus [39]): 96%; MPE (Mus musculus [40]): 81.9%; MPE (Mus musculus [41]): 65.5%; MPE (Mus musculus [42]): 44.7%; Time (Mus musculus [43]): 360 min; Activity (Mus musculus [44]): inactive
